Reference: US8440683B2, “Pharmaceutical preparation for treating demyelinating diseases of the nervous system; preparation promoting restoration of the myelin sheath of nerve fibers; and a method for treating demyelinating diseases of the nervous system” (priority 2007, dated 2013)

Legend:
[1] = clinical scale; abscesses, hematomas, elevated arterial pressure, allergic reactions etc.; cited from earlier work
[2] = test system: Schwann cells; assay: stimulation of Schwann cell growth and myelin formation; conditions: inventors' experiments
[3] = treatment of syringomyelia patients; assay type: in vivo
Procedure: The preparation was administered to 37 patients suffering from syringomyelia.
Along with the administration of the preparation, all the patients were directed to take massage sessions, physiotherapy exercises, spine ionization by potassium iodide, and vitamins B1 and B12. […] Special attention must be drawn to the fact that the malfunctions are corrected in patients showing early signs of syringobulbia.

[4] = treatment of patients with cerebrospinal form of disseminated sclerosis; assay type: in vivo; conditions: disseminated sclerosis with tetraparesis, cerebello-ataxic syndrome, pelvic disorders
From the text: The preparation was effective in patients suffering from the cerebrospinal form of disseminated sclerosis combined with tetraparesis, cerebello-ataxic syndrome, and pelvic disorders.

[5] = test system: degenerating nerves; assay: myelination of degenerating nerves in rats; assay type: in vivo
From the text: By comparison, myelination of nerve fibers proceeded slowly in control animals that were not treated with stephaglabrin sulfate and was not completed even within 100 to 120 days.

[6] = treatment of myelopathy patients with lateral amyotrophic syndrome; assay type: in vivo; conditions: intramuscular 2.0 ml of 0.25% solution twice a day, two to three weeks
Procedure: Administration of stephaglabrin sulfate intramuscularly in 2.0 ml doses of a 0.25% solution twice a day for two to three weeks in treating myelopathy patients showing elements of a lateral amyotrophyic syndrome.

[7] = test system: true and false cholinesterase; conditions: cited from earlier work
[8] = in vivo; cited from earlier work
[9] = treatment of amyotrophic lateral sclerosis patients; assay type: in vivo
From the text: Another patient had their disordered breathing, which could not be corrected by other preparations, restored.

[10] = in water and aqueous alcohol; cited from earlier work
[11] = test system: connective tissue development; conditions: damage to a nerve; U.S.S.R. Patent No. 1,713,151; cited from earlier work
[12] = in vivo; cited from earlier work; remark: listed apart in the source
[13] = test system: smooth muscles; conditions: cited from earlier work

Substance | side reactions on clinical use [1] | growth of Schwann cells and subsequent myelin formation [2] | time to lowered levels of sensing disorders ([3]; from the start of treatment, 2 ml twice a day plus massage, physiotherapy, vitamins) | patients with a positive effect ([3]; of 37 syringomyelia patients) [patients] | onset of decline of sympathalgic pain intensity ([3]; some patients) | clinical effectiveness [4] | start of myelination of degenerating nerves ([5]; 0.1 to 1.0 mg/kg, versus untreated animals) | speed of impulse passage in the nerve ([5]; electrophysiological studies) | clinical effects observed [6] | activity of true and false cholinesterase [7] | toxicity [8] | therapeutic effect ([9]; 14 patients with severe amyotrophic lateral sclerosis) | disordered breathing ([9]; another patient, not corrected by other preparations) | patients with strength build-up in the extremities and reduced bulbar disorders ([9]; of 14 patients) [patients] | swallowing ([9]; one patient with aphonia and dysphagia, after 10 days of 2 ml twice a day) | solubility [10] | activity in relation to connective tissue development, preventing formation of scars [11] | arterial pressure [12] | effect on smooth muscles [13]
glatiramer acetate [Copaxone-Teva] | Numerous side reactions | – | – | – | – | – | – | – | – | – | – | – | – | – | – | – | – | – | –
stephaglabrin sulfate | – | stimulate the growth of Schwann cells | within two to three weeks | 28 | 10th to 12th day | effective | stimulates an early start of myelination | complete recovery | disappearance of fibrillations, reduction in amyotrophy intensity and polykinetics of proprioceptive reflexes, and growth of muscle power in the arms | suppresses the activity | low toxicity | positive therapeutic effect | restored | 12 | significant improvement in swallowing | well soluble | specific inhibiting activity | lowers arterial pressure | tonic effect
